Here are results for 2 molecules from publication PMC4352855 (Scientific Reports, 2015).

One experiment has as its target T1, S466A-LLO (Listeria monocytogenes serovar 1/2a, UniProt P13128, S466A).
T1 construct: His6 (C); made in house; host or cells: Escherichia coli BL21(DE3)
Format: biochemical. The conditions noted are these: mutant S466A compared with LLO, Fig. 2b.

The next experiment has as its target T2, V428A-LLO (Listeria monocytogenes serovar 1/2a, UniProt P13128, V428A).
T2 construct: His6 (C); made in house; host or cells: Escherichia coli BL21(DE3)
In kind it is biochemical. The conditions noted are these: mutant V428A compared with LLO, Fig. 2b.

For another experiment, the target named is T3, S467A-LLO (Listeria monocytogenes serovar 1/2a, UniProt P13128, S467A).
T3 construct: His6 (C); made in house; host or cells: Escherichia coli BL21(DE3)
Format: biochemical. The conditions noted are these: mutant S467A compared with LLO, Fig. 2b.

The target of a further experiment is T4, Y427A-LLO (Listeria monocytogenes serovar 1/2a, UniProt P13128, Y427A).
T4 construct: His6 (C); made in house; host or cells: Escherichia coli BL21(DE3)
Format: biochemical. The conditions noted are these: mutant Y427A compared with LLO, Fig. 2b.

The target of the next experiment is T5, LLO (Listeria monocytogenes serovar 1/2a, UniProt P13128).
T5 construct: His6 (C); made in house; host or cells: Escherichia coli BL21(DE3)
The conditions noted are these: cited from earlier work.

The subject of another experiment is L. monocytogenes. The conditions noted are these: cited from earlier work.

Entries after “also recorded” stand apart in the source; their conditions may differ.

With `O=c1c(O)c(-c2cc(O)c(O)c(O)c2)oc2cc(O)cc(O)c12` [Myr, myricetin], the “sensitivity to Myr in the inhibition of hemolytic activity” value at S466A-LLO, at V428A-LLO, at S467A-LLO and at Y427A-LLO was “less sensitive” each time.
`O=c1c(O)c(-c2ccc(O)c(O)c2)oc2cc(O)ccc12` [fisetin]: on LLO, the “effect on hemolytic activity of LLO” value is “inhibit its hemolytic activity; also recorded: attenuating the hemolytic activity of LLO”. In the experiment with L. monocytogenes, the antimicrobial activity result is given as “without antimicrobial activity; also recorded: without anti-bacterial activity”.
